Measurements: US11013745B2, “Triazolopyrimidine, triazolopyridine compounds, and the composition thereof for treating PRC2-mediated diseases” (SHANGHAI INSTITUTE OF MATERIA MEDICA, CHINESE ACADEMY OF …, priority 2017, dated 2021)

What was measured:
[1] = tested on: Pfeiffer cells; test: Pfeiffer cell growth inhibition in a long term (11 days), CellTiter-Glo; assay type: cell-based, Human; details: Homo sapiens, 264 h, 11 days, read-out: Experiment on Pfeiffer cell growth inhibition in a long term (11 days IC50)
Procedure, shortened: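 Exponentially growing cells seeded at 1*10E5 cells/mL and treated the same day with a concentration range. Media and compound were refreshed at days 4 and 7. Viability was read by CellTiter-Glo after 11 days and GI50 values were derived.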

[2] = Liver microsomal stability (mouse); assay type: in vitro ADME
[3] = Oral pharmacokinetics in rats; assay type: in vivo; details: male, SD, plasma, rat, intragastric, 3 mg/kg
Method: 1. Healthy male SD rats were used as test animals, EED226, […]-07 (3 mg/kg) were administered intragastrically, and the drug concentrations in rat plasma were determined by LC/MS/MS method at different time points after drug administration. The pharmacokinetic behavior of the compounds of the present invention in rats was studied, and the pharmacokinetic properties were evaluated. 2. The test animals were healthy adult male SD rats, with 3 rats in each group, purchased from Shanghai Xipuer-Bikai Laboratory Animal Limited Company. 3. Drug preparation: Compounds EED226, […] were dissolved in DMSO/0.5% HPMC (5/95, v/v) for preparation. The compound SL-ZYE-07 was dissolved in 0.5% HPMC (containing 0.5% Tween 80), vortexed, and sonicated to disperse the solid matter uniformly to obtain a pale white suspension. 4, Operation: EED226, […]-07 were administered to rats by intragastric administration (3 mg/kg), 45 μL of blood was taken through the femoral vein at 0.25, 0.5, 1, 2, 4, 8, 24 hour after administration, and centrifuged in a heparinized centrifuge tube for 5 min, and the plasma samples were separated for analysis. The contents of test compounds in rat plasma after intragastric administration of different compounds were determined by Liquid chromatography-mass spectrometry (LC-MS/MS).

[4] = Liver microsomal stability (rat); assay type: in vitro ADME
Procedure, shortened: (§1)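 Human, mouse and rat liver microsomes were incubated with NADPH and MgCl2 in 0.1 M Tris pH 7.4, with compound at a 0.2 μM working solution. Remaining compound was quantified by LC/MS over the incubation time. The slope of log remaining versus time gave Clint, which was scaled to predicted Cl, Clhep and % MF.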

[5] = Liver microsomal stability (human); assay type: in vitro ADME
Procedure, shortened: as §1

IC50 [1]: 3.2 nM | Clearance rate in vivo Clint In Vivo Extpl ([2]; mouse liver microsomes): 1.50 mL/min | Intrinsic clearance rate in vivo Clint In Vitro ([2]; mouse liver microsomes): 22.2 mL/min/gprot | Liver clearance rate Clint Hep In Vivo Extpl ([2]; mouse liver microsomes): 1.00 mL/min | Metabolic bioavailability MF % ([2]; mouse liver microsomes): 66.7% | half-life ([2]; mouse, liver microsomes, pH 7.4, mouse liver microsomes, read-out: Half life T-half): 94.6 min | AUC(0-t) [3]: 529 ± 150 ng·h/mL | AUC(0-inf) ([3]; extrapolated to infinity, read-out: AUCINF_obs): 539 ± 150 ng·h/mL | MRT inf ([3]; read-out: Average residence time MRTINF_obs): 2.06 ± 0.484 h | half-life ([3]; read-out: Half life T1/2 (converted)): 82.2 ± 12.7 min | Cmax ([3]; read-out: Peak concentration Cmax): 376 ± 273 ng/mL | Clearance rate in vivo Clint In Vivo Extpl ([4]; rat liver microsomes): 15.9 mL/min | Intrinsic clearance rate in vivo Clint In Vitro ([4]; rat liver microsomes): 35.2 mL/min/gprot | Liver clearance rate Clint Hep In Vivo Extpl ([4]; rat liver microsomes): 8.85 mL/min | Metabolic bioavailability MF % ([4]; rat liver microsomes): 53.9% | half-life ([4]; rat, liver microsomes, pH 7.4, rat liver microsomes, read-out: Half life T-half): 55.2 min | Clearance rate in vivo Clint In Vivo Extpl ([5]; human liver microsomes): 1732 mL/min | Intrinsic clearance rate in vivo Clint In Vitro ([5]; human liver microsomes): 22.6 mL/min/gprot | Liver clearance rate Clint Hep In Vivo Extpl ([5]; human liver microsomes): 804 mL/min | half-life ([5]; human, liver microsomes, pH 7.4, human liver microsomes, read-out: Half life T-half): 92.8 min | bioavailability ([5]; human, liver microsomes, pH 7.4, human liver microsomes, read-out: Metabolic bioavailability MF %): 46.4%
Structure (SMILES): CS(=O)(=O)N1CC=C(c2cnc(NCc3c(F)ccc4c3CCO4)n3cnnc23)CC1 [E-Y13]
